In PubChem BioAssay AID256 (DTP/NCI, 2004):
Values joined by “and” are separate entries in the source; they are usually repeats but may differ in a detail not shown here. Equal entries are not always repeated. Toxic doses and inconclusive results are not listed. The calls were made as follows: active = survival T/C of 150% or more; inactive = T/C below 125% in these data.

Tested on: CD2F1 mice, L1210 leukemia ip, survival T/C
Assay: NCI In Vivo Anticancer Drug Screen. Data for tumor model L1210 Leukemia (intraperitoneal) in CD2F1 (CDF1) mice
Conditions: higher = longer survival
Summary of the method: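 In this screen, transplantable tumors were grown in mice given either the compound or its vehicle. Results were expressed as the treated measurement relative to the control measurement.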

[1] = endpoint: mean survival time, dose: 25.0 mg/kg/injection, schedule: Q01DX009 (ip), vehicle: saline with Tween-80
[2] = endpoint: mean survival time, dose: 50.0 mg/kg/injection, schedule: Q01DX009 (ip), vehicle: saline with Tween-80
[3] = endpoint: mean survival time, dose: 100.0 mg/kg/injection, schedule: Q04DX003 (ip), vehicle: saline with Tween-80
[4] = endpoint: mean survival time, dose: 100.0 mg/kg/injection, schedule: Q01DX009 (ip), vehicle: saline with Tween-80
[5] = endpoint: mean survival time, dose: 200.0 mg/kg/injection, schedule: Q01DX009 (ip), vehicle: saline with Tween-80
[6] = endpoint: mean survival time, dose: 200.0 mg/kg/injection, schedule: Q04DX003 (ip), vehicle: saline with Tween-80
[7] = endpoint: mean survival time, dose: 400.0 mg/kg/injection, schedule: Q04DX003 (ip), vehicle: saline with Tween-80
[8] = endpoint: mean survival time, dose: 12.5 mg/kg/injection, schedule: Q01DX009 (ip), vehicle: saline with Tween-80
[9] = endpoint: mean survival time, dose: 100.0 mg/kg/injection, schedule: Q04DX003 (ip), vehicle: saline
[10] = endpoint: mean survival time, dose: 200.0 mg/kg/injection, schedule: Q04DX003 (ip), vehicle: saline
[11] = endpoint: mean survival time, dose: 400.0 mg/kg/injection, schedule: Q01DX009 (ip), vehicle: saline with Tween-80

Measured: T/C

O=NNc1cccnc1
inactive: endpoint: median survival time, dose: 6.25 mg/kg/injection, schedule: Q01DX009 (ip), vehicle: water 96 % of control | endpoint: median survival time, dose: 12.5 mg/kg/injection, schedule: Q01DX009 (ip), vehicle: water 99 % of control | endpoint: median survival time, dose: 25.0 mg/kg/injection, schedule: Q01DX009 (ip), vehicle: water 99 % of control

O=C(/C=C/c1ccccc1O)/C=C/c1ccccc1O
inactive: [1] 107 % of control | endpoint: mean survival time, dose: 25.0 mg/kg/injection, schedule: Q04DX003 (ip), vehicle: saline with Tween-80 111 % of control | [2] 94 % of control | endpoint: mean survival time, dose: 50.0 mg/kg/injection, schedule: Q04DX003 (ip), vehicle: saline with Tween-80 101 % of control | [3] 105 % of control

CNCC(O)c1ccc(O)cc1 (configuration not stated)
inactive: endpoint: mean survival time, dose: 100.0 mg/kg/injection, schedule: Q01DX009 (ip), vehicle: saline 94 % of control | endpoint: mean survival time, dose: 200.0 mg/kg/injection, schedule: Q01DX009 (ip), vehicle: saline 91 % of control

ON1C=CC2C=CC1c1ccccc12 (configuration not stated)
inactive: endpoint: median survival time, dose: 50.0 mg/kg/injection, schedule: Q04DX002 (ip), vehicle: saline with Tween-80 100 % of control | endpoint: median survival time, dose: 100.0 mg/kg/injection, schedule: Q04DX002 (ip), vehicle: saline with Tween-80 88 % of control | endpoint: median survival time, dose: 200.0 mg/kg/injection, schedule: Q04DX002 (ip), vehicle: saline with Tween-80 88 % of control

CC[CH2][Sn]([CH2]CC)([CH2]CCC#N)[O]C(C)=O
inactive: endpoint: mean survival time, dose: 0.09 mg/kg/injection, schedule: Q01DX009 (ip), vehicle: saline 97 % of control | endpoint: mean survival time, dose: 0.19 mg/kg/injection, schedule: Q01DX009 (ip), vehicle: saline 101 % of control | endpoint: mean survival time, dose: 0.39 mg/kg/injection, schedule: Q01DX009 (ip), vehicle: saline 100 % of control and 105 % of control | endpoint: mean survival time, dose: 1.56 mg/kg/injection, schedule: Q01DX009 (ip), vehicle: saline 103 % of control

CC(=O)Nc1ccc(/C=N/NC(=O)CNC(=O)NCc2ccco2)cc1
inactive: [2] 96 % of control | [4] 92 % of control | [5] 94 % of control

CC(N)(CCO)C(=O)O (configuration not stated)
inactive: endpoint: mean survival time, dose: 100.0 mg/kg/injection, schedule: Q01DX009 (ip), vehicle: saline sonified 97 % of control | [3] 101 % of control | endpoint: mean survival time, dose: 200.0 mg/kg/injection, schedule: Q01DX009 (ip), vehicle: saline sonified 104 % of control | [6] 101 % of control | endpoint: mean survival time, dose: 400.0 mg/kg/injection, schedule: Q01DX009 (ip), vehicle: saline sonified 103 % of control | [7] 98 % of control

O=C(NNC(=S)Nc1cccc(C(F)(F)F)c1)c1ccncc1
inactive: [8] 91 % of control | [1] 93 % of control | [2] 88 % of control | endpoint: mean survival time, dose: 100.0 mg/kg/injection, schedule: Q04DX002 (ip), vehicle: saline with Tween-80 98 % of control | endpoint: mean survival time, dose: 200.0 mg/kg/injection, schedule: Q04DX002 (ip), vehicle: saline with Tween-80 105 % of control

Nc1cc(S(=O)(=O)O)c2cccnc2c1O
inactive: [9] 114 % of control | [10] 108 % of control

Cc1ccc(S(=O)C(c2ccccc2)C(c2ccccc2)C(C)O)cc1 (configuration not stated)
inactive: [3] 90 % of control | [6] 94 % of control | [7] 90 % of control

O=C(O)CCCCCc1ccccc1
inactive: [4] 96 % of control | [3] 102 % of control | [5] 95 % of control | [6] 91 % of control | [11] 101 % of control | [7] 101 % of control

O=C(NCCCl)NC1C(O)C(O)C(O)C(O)C1O (configuration not stated)
inactive: endpoint: mean survival time, dose: 100.0 mg/kg/injection, schedule: Q01DX001 (ip), vehicle: saline with Tween-80 104 % of control | endpoint: mean survival time, dose: 200.0 mg/kg/injection, schedule: Q01DX001 (ip), vehicle: saline with Tween-80 98 % of control | endpoint: mean survival time, dose: 400.0 mg/kg/injection, schedule: Q01DX001 (ip), vehicle: saline with Tween-80 98 % of control

O=C1CCC2=C(CCC3(C2)OCCO3)N1
inactive: [4] 94 % of control | [9] 96 % of control | [5] 102 % of control | [10] 103 % of control | [11] 90 % of control | endpoint: mean survival time, dose: 400.0 mg/kg/injection, schedule: Q04DX003 (ip), vehicle: saline 100 % of control

CSc1ccc(N=C=C(c2ccccc2)c2ccccc2)cc1
inactive: endpoint: mean survival time, dose: 6.25 mg/kg/injection, schedule: Q01DX009 (ip), vehicle: saline with Tween-80 96 % of control | [8] 94 % of control | [1] 94 % of control | [3] 93 % of control | [6] 95 % of control | [7] 97 % of control
